Results taken from paper PMC12566046, “Arylpiperazinyl-Benzocycloheptapyrrole-Carboxamides Endowed with Dual Anticancer and Antiviral Activities” (Molecules, 2025).
Like-named read-outs stand apart in the source and are kept apart here.

Experiments:
[1] = test system: SF-295 (CNS cancer cell line); assay: NCI-60 single-dose assay; type: cell-based, human; conditions: SF-295; single-dose assay
Procedure, shortened: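 One-dose NCI-60 screen measuring cytotoxic activity; compounds meeting pre-set threshold inhibition criteria in a minimum number of lines advanced to the five-dose assay.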

[2] = test system: CCRF-CEM (leukemia cell line); assay: NCI-60 five-dose assay; type: cell-based, human; conditions: Homo sapiens, five doses (10^−4–10^−8 M), read-out: Growth inhibition 50 (GI50)
[3] = test system: HL-60(TB) (leukemia cell line); assay: NCI-60 five-dose assay; type: cell-based, human; conditions: Homo sapiens, five doses (10^−4–10^−8 M), read-out: Growth inhibition 50 (GI50)
[4] = test system: K-562 (leukemia cell line); assay: NCI-60 five-dose assay; type: cell-based, human; conditions: Homo sapiens, K562, five doses (10^−4–10^−8 M), read-out: Growth inhibition 50 (GI50)
[5] = test system: RPMI-8226 (leukemia cell line); assay: NCI-60 five-dose assay; type: cell-based, human; conditions: Homo sapiens, five doses (10^−4–10^−8 M), read-out: Growth inhibition 50 (GI50)
SR (leukemia cell line) = assay: NCI-60 five-dose assay; type: cell-based, human; conditions: Homo sapiens, five doses (10^−4–10^−8 M), read-out: Growth inhibition 50 (GI50)
[6] = test system: COLO 205 (colon cancer cell line); assay: NCI-60 five-dose assay; type: cell-based, human; conditions: Homo sapiens, five doses (10^−4–10^−8 M), read-out: Growth inhibition 50 (GI50)
[7] = test system: HCC-2998 (colon cancer cell line); assay: NCI-60 five-dose assay; type: cell-based, human; conditions: Homo sapiens, five doses (10^−4–10^−8 M), read-out: Growth inhibition 50 (GI50)
[8] = test system: HCT-15 (colon cancer cell line); assay: NCI-60 five-dose assay; type: cell-based, human; conditions: Homo sapiens, five doses (10^−4–10^−8 M), read-out: Growth inhibition 50 (GI50)
[9] = test system: HT29 (colon cancer cell line); assay: NCI-60 five-dose assay; type: cell-based, human; conditions: Homo sapiens, HT-29, five doses (10^−4–10^−8 M), read-out: Growth inhibition 50 (GI50)
[10] = test system: KM12 (colon cancer cell line); assay: NCI-60 five-dose assay; type: cell-based, human; conditions: Homo sapiens, five doses (10^−4–10^−8 M), read-out: Growth inhibition 50 (GI50)
[11] = test system: SW-620 (colon cancer cell line); assay: NCI-60 five-dose assay; type: cell-based, human; conditions: Homo sapiens; SW-620; five doses (10^−4–10^−8 M); read-out: Growth inhibition 50 (GI50)
[12] = test system: MDA-MB-468 (breast cancer); assay: NCI-60 five-dose assay; type: cell-based, human; conditions: Homo sapiens, five-dose screen
[13] = test system: RXF 393 (renal cancer cells); assay: NCI-60 five-dose assay; type: cell-based, human; conditions: Homo sapiens, five-dose screen
Colon Cancer panel = assay: NCI-60 five-dose assay, panel-level GI50 (mean graph midpoint, range); type: cell-based, human; conditions: Homo sapiens; Colon Cancer panel average; read-out: GI50 mean graph midpoint (MG_MID)
Experimental: (§1) Due to these preliminary results, six compounds, 1, 5, 10, 11, 17, and 20, were selected for the five-dose screen NCI-programme against the same panel of tumour cell lines.
(§2) Next, a mean graph midpoint (MG_MD) was calculated for compounds 1, 5, 10, 11, 17, and 20 and reported as waterfall graphs GI50, TGI, and LC50 in the Supplementary Materials (Figures S69–S86). In Table 9, we reported the average GI50 for the nine-cancer panels, underlining both the activity and selectivity for compounds 1, 10, 11, and 20.

Leukemia panel = assay: as above; type: cell-based, human; conditions: Homo sapiens; Leukemia panel average; read-out: GI50 mean graph midpoint (MG_MID)
Experimental: as §1, §2

Melanoma panel = assay: as above; type: cell-based, human; conditions: Homo sapiens
Experimental: as §1, §2

[14] = test system: NCI cancer panel (all cell lines); assay: NCI-60 five-dose assay, overall mean graph midpoint (MG_MID); type: cell-based, human; conditions: Homo sapiens; MG_MID over all panels; read-out: GI50 mean graph midpoint (MG_MID)
Experimental: as §1, §2

M14 (melanoma cell line) = assay: NCI-60 five-dose assay; conditions: for GI50 / CC50: Homo sapiens; for GI50: M14, read-out: Growth inhibition 50 (GI50); for CC50: M14, read-out: LC50 (molar concentration leading to 50% net cell death); for TGI (molar concentration giving total growth inhibition): M14
[15] = test system: MDA-MB-435 (melanoma cell line); assay: NCI-60 five-dose assay; conditions: for GI50 / CC50: Homo sapiens; for GI50: MDA-MB-435, read-out: Growth inhibition 50 (GI50); for CC50: MDA-MB-435, read-out: LC50 (molar concentration leading to 50% net cell death); for TGI (molar concentration giving total growth inhibition): MDA-MB-435
[16] = test system: SK-MEL-2 (melanoma cell line); assay: NCI-60 five-dose assay; conditions: for GI50 / CC50: Homo sapiens; for GI50: SK-MEL-2, read-out: Growth inhibition 50 (GI50); for CC50: SK-MEL-2, read-out: LC50 (molar concentration leading to 50% net cell death); for TGI (molar concentration giving total growth inhibition): SK-MEL-2
[17] = test system: SK-MEL-28 (melanoma cell line); assay: NCI-60 five-dose assay; conditions: for GI50: SK-MEL-28, read-out: Growth inhibition 50 (GI50); for TGI (molar concentration giving total growth inhibition): SK-MEL-28
[18] = test system: SK-MEL-5 (melanoma cell line); assay: NCI-60 five-dose assay; conditions: for GI50: SK-MEL-5, read-out: Growth inhibition 50 (GI50); for TGI (molar concentration giving total growth inhibition): SK-MEL-5
[19] = test system: UACC-257 (melanoma cell line); assay: NCI-60 five-dose assay; conditions: for GI50: UACC-257, read-out: Growth inhibition 50 (GI50); for TGI (molar concentration giving total growth inhibition): UACC-257
[20] = test system: UACC-62 (melanoma cell line); assay: NCI-60 five-dose assay; conditions: for GI50: UACC-62, read-out: Growth inhibition 50 (GI50); for TGI (molar concentration giving total growth inhibition): UACC-62
[21] = Melanoma panel average, read-out: GI50 mean graph midpoint (MG_MID)

| SMILES | GI50 [2] [µM] | GI50 [3] [µM] | GI50 [4] [µM] | GI50 [5] [µM] | GI50 (SR (leukemia cell line)) [µM] | GI50 [6] [µM] | GI50 [7] [µM] | GI50 [8] [µM] | GI50 [9] [µM] | GI50 [10] [µM] | GI50 [11] [µM] | GI50 [13] [µM] | GI50 (Colon Cancer panel) [µM] | GI50 (Leukemia panel) [µM] | GI50 (Melanoma panel; [21]) [µM] | GI50 [14] [µM] | GI50 (M14 (melanoma cell line)) [µM] | CC50 (M14 (melanoma cell line)) [µM] | TGI (molar concentration giving total growth inhibition) (M14 (melanoma cell line)) [µM] | GI50 [15] [µM] | further results |
| --- | --- | --- | --- | --- | --- | --- | --- | --- | --- | --- | --- | --- | --- | --- | --- | --- | --- | --- | --- | --- | --- |
| O=C(NCCCN1CCN(c2ccccc2)CC1)c1cc2c([nH]1)-c1ccccc1CCC2 [Compound 10, N-(3-(4-Phenylpiperazin-1-yl)propyl)-1,4,5,6-tetrahydrobenzo[6,7]cyclohepta[1,2-b]pyrrole-2-carboxamide] | 8.21 | 5.58 | 2.58 | 3 | 2.29 | 1.92 | 2.51 | 4.71 | 3.14 | 4.89 | 8.89 | 2.06 | 3.98 | 2.95 | 4.07 | 7.24 | 2.78 | 44.7 | 8.51 | 7.88 | growth inhibition (GI%) and cytotoxicity (negative values) [1]: 90.84%; GI50 [12]: 2.93 µM; GI50 (Melanoma panel; five-dose screen, number of cell lines as named in the sentence, read-out: GI50, range over melanoma cell lines): 1.65 to 2.78 µM; CC50 [15]: 40.7 µM; TGI (molar concentration giving total growth inhibition) [15]: 18.62 µM; GI50 [16]: 14.9 µM; CC50 [16]: 81.3 µM; TGI (molar concentration giving total growth inhibition) [16]: 34.67 µM; GI50 ([17]; Homo sapiens): 2.51 µM; TGI (molar concentration giving total growth inhibition) [17]: 8.51 µM; GI50 ([18]; Homo sapiens): 2.71 µM; TGI (molar concentration giving total growth inhibition) [18]: 9.77 µM; GI50 ([19]; Homo sapiens): 2.29 µM; TGI (molar concentration giving total growth inhibition) [19]: 6.61 µM; GI50 ([20]; Homo sapiens): 9.02 µM; TGI (molar concentration giving total growth inhibition) [20]: 25.12 µM |
| CCOc1ccccc1N1CCN(CCNC(=O)c2c(Cl)[nH]c3c2CCCc2ccccc2-3)CC1 [Compound 17] |  |  |  |  |  |  |  |  |  |  |  | 2.57 |  |  |  |  |  |  |  |  |  |
| O=C(NCCCN1CCN(Cc2ccccc2)CC1)c1c(Cl)[nH]c2c1CCCc1ccccc1-2 [Compound 20, N-(3-(4-Benzylpiperazin-1-yl)propyl)-2-chloro-1,4,5,6-tetrahydrobenzo[6,7]cyclohepta[1,2-b]pyrrole-3-carboxamide] | 10.7 | 5.06 | 2.97 | 3.69 | 0.53 | 1.96 | 1.77 | 7.78 | 4.03 | 9.38 | 3.59 |  | 4.17 | 3.39 | 3.39 | 6.76 | 2.01 | 8.71 | 4.17 | 4.9 | CC50 [15]: 49 µM; TGI (molar concentration giving total growth inhibition) [15]: 17.78 µM; GI50 [16]: 13.7 µM; CC50 [16]: 53.7 µM; TGI (molar concentration giving total growth inhibition) [16]: 26.91 µM; GI50 ([17]; Homo sapiens): 2.11 µM; CC50 ([17]; Homo sapiens, SK-MEL-28, read-out: LC50 (molar concentration leading to 50% net cell death)): 13.2 µM; TGI (molar concentration giving total growth inhibition) [17]: 4.9 µM; GI50 ([18]; Homo sapiens): 1.79 µM; CC50 ([18]; Homo sapiens, SK-MEL-5, read-out: LC50 (molar concentration leading to 50% net cell death)): 6.46 µM; TGI (molar concentration giving total growth inhibition) [18]: 3.39 µM; GI50 ([19]; Homo sapiens): 1.87 µM; CC50 ([19]; Homo sapiens, UACC-257, read-out: LC50 (molar concentration leading to 50% net cell death)): 26.9 µM; TGI (molar concentration giving total growth inhibition) [19]: 6.61 µM; GI50 ([20]; Homo sapiens): 6.93 µM; CC50 ([20]; Homo sapiens, UACC-62, read-out: LC50 (molar concentration leading to 50% net cell death)): 45.7 µM; TGI (molar concentration giving total growth inhibition) [20]: 19.95 µM |
